The source of these data is US11912742B2, “Heterologous production of leupeptin protease inhibitors and analogs thereof” (YALE UNIVERSITY, priority 2020, dated 2024).

Data set [1] in a line: Spontaneous conversion of pro-pyrazinones under aerobic conditions. It counts as physicochemical.
For another data set, the system named is Plu4509. Briefly: In vitro enzyme assay of purified Plu4509 with leupeptin as substrate. As to conditions: His6x-tagged Plu4509; end point analysis; 1 h, 35° C. Type of data set: biochemical, P. luminescens.
The next data set relates to trypsin-like proteases. As to conditions: cited from earlier work.
The conditions of data set [2]: cited from earlier work.
The subject of data set [3] is chymotrypsin-type proteases. As to conditions: previously synthesized molecules; cited from earlier work.
The test system of another data set is calpain protease. As to conditions: cited from earlier work.

Where a SMILES comes first, the peptide text is derived from it.

For `CC(C)C[C@@H]1N[C@@H]2N=C(N)N3CCC[C@@]23NC1=O` [compound 9], in data set [1], the “stability under aerobic conditions (conversion to pyrazinone)” value is given as “spontaneously converted to their pyrazinone counterpart 11”.

With `CC(C)C[C@@H]1N[C@@H]2N=C(N)N3CCC[C@]23NC1=O` [compound 10], the “stability under aerobic conditions (conversion to pyrazinone)” value in data set [1] is reported as “spontaneously converted to their pyrazinone counterpart 11”.

Regarding `CC(=O)N[C@@H](CC(C)C)C(=O)N[C@@H](CC(C)C)C(=O)N[C@H](C=O)CCCNC(=N)N` [leupeptin A, N-Acetyl-L-leucyl-L-leucyl-L-argininal], the “cleavage by Plu4509: production of metabolites 10 and 11 from the substrate” value with Plu4509 is “significantly enhanced production of 10 and 11”. In addition, in the data set on trypsin-like proteases, the “inhibition of trypsin-like proteases” value is “inhibits trypsin-like proteases”. Further, in data set [2], the toxicity in humans result is listed as “very low toxicity”.

For the compound `CC(=O)N[C@@H](CC(C)C)C(=O)N[C@@H](CC(C)C)C(=O)N[C@H](C=O)Cc1ccc(O)cc1` [leupeptin B] (Ac-Leu-Leu-Tyr-aldehyde), the “inhibition of chymotrypsin-type proteases” value in data set [3] is on record as “confirmed to inhibit chymotrypsin-type proteases”.

With `CC(=O)NC(CC(C)C)C(=O)NC(CC(C)C)C(=O)NC(C=O)Cc1ccccc1` (stereo not drawn) [leupeptin C] (Ac-Leu-Leu-Phe-aldehyde; configuration not given here), the “inhibition of chymotrypsin-type proteases” value in data set [3] is recorded as “confirmed to inhibit chymotrypsin-type proteases”.

Take `CC(C)Cc1ncc(Cc2ccc(O)cc2)[nH]c1=O` [lumizinone A]: the calpain protease inhibition entry with calpain protease is listed as “calpain protease inhibitor”.
